# In patent publication US20160361244A1, “USE OF THE INHIBITOR OF STEROID SULFATASES STX64 FOR TREATING AGING” (U[…] DE OLAVIDE, priority 2013, published 2016):
# Tested on: wild type C. elegans
# Test: Longevity curves of C. elegans in the presence of the steroid sulfatase inhibitor
# Format: in vivo
# Conditions: for longevity (longevity curve) versus control population exposed to the inhibitor solvent (DMSO): 25° C., p=0.0139, n>100, FIG. 3
# Protocol: In order to generate the longevity curves, the strains under study and their pertinent controls were first subjected to an egg preparation in order to prevent contaminations and synchronise them at the embryonic stage, and, subsequently, they were incubated at 16° C. In order to prevent interferences caused by physiological stresses resulting from this process, they were allowed to grow to the following generation. 5 or 6 L4 per plate were then transferred to 4 plates, and were once again incubated at 16° C. to L4, the stage selected to start the longevity curves.
# On day zero, 120 L4 of each strain were transferred to new plates, 20 worms per plate, and incubated at the temperature at which the assay was subsequently performed, i.e. 25° C.
# During the first week of the curves, the nematodes were transferred to new plates every 2 days, in order to prevent confusions with potential descendants. Subsequently, they were checked every 2 or 3 days, and those specimens that were lost or dead for non-physiological reasons were withdrawn from the study. The individuals were transferred to new plates every 5 days in order to maintain optimal growth conditions in the plates. The specimens were considered to be dead when they ceased to respond upon being softly touched with the platinum wire.
# The longevity was studied in the presence of the steroid sulfatase inhibitor STX64 (SIGMA, S1950-5MG) diluted in DMSO at 5 μg/μl. […] The preparation and synchronisation of the nematodes until day=0 was the same as in the preceding case, the only difference being that the nematodes were transferred to fresh plates every two or three days until the curve was completed.
# We used the GraphPad Prism 5 programme (Version 5.0a, for Mac OS X. 1992-2008 GraphPad Software, Inc.) in the survival curve mode to represent the longevity curves, and the Kaplan-Meier method was used to perform the statistical analysis thereof. […]
smiles,measurement,setting,value
"NS(=O)(=O)Oc1ccc2c3c(c(=O)oc2c1)CCCCC3 [STX64, Irosustat]",effect of treatment on ageing,"C. elegans, FIG. 3",delayed ageing
same,longevity (longevity curve) versus control population exposed to the inhibitor solvent (DMSO),wild type population supplemented with 0.5 μg/ml,lives significantly longer
same,longevity (longevity curve) versus control population exposed to the inhibitor solvent (DMSO),wild type population supplemented with 1 μg/ml,lives significantly longer
